Assay results: patent publication US6479435B1, “Diaryl ethers and processes for their preparation and herbicidal and desiccant compositions containing them” (ISK Americas Incorporated, priority 1997, dated 2002)

Columns and labels:
Format in all cases: in vivo
[1] = tested on: field corn (Zea mays L., var. Dekalb 535, CORN); assay: Pre-emerge greenhouse test, crop damage rating; details: 14 days after application, rating scale 0-100
In short: (§1)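 Seeds sown in sandy loam mix one day before track-sprayer application of compounds in acetone at 125–1000 g ai/ha (187 l/ha), then surface-watered to incorporate and bottom-watered. Visual rating 14 days after application on a 0–100 scale (0 = no damage, 100 = all plants dead).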

[2] = tested on: upland rice (Oryza sp., var.Tebonnet, RICE); assay: Pre-emerge greenhouse test, crop damage rating; details: 14 days after application, rating scale 0-100
In short: as §1

[3] = tested on: field corn (Zea mays L., var. Dekalb 535, CORN); assay: Post-emerge greenhouse test, crop damage rating; details: 14 days after application, scale 0-100
In short: (§2)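 Compounds in acetone with 0.25% v/v non-ionic surfactant were track-sprayed at 187 l/ha over plants at the 2-3 leaf stage, at 63 to 1000 g ai/ha. Pots were bottom-watered. Injury was scored visually 14 days later on a 0-100 scale, where 0 is no damage and 100 is complete plant death.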

[4] = tested on: upland rice (Oryza sp., var.Tebonnet, RICE); assay: Post-emerge greenhouse test, crop damage rating; details: 14 days after application, scale 0-100
In short: as §2

[5] = tested on: common ragweed (Ambrosia artemisiifolia L., AMBEL); assay: Post-emerge greenhouse herbicide test, phytotoxicity rating; details: 14 days after application, scale 0-100
In short: as §2

[6] = tested on: soybean (Glycine max L., var. Pella 86, SOY); assay: Post-emerge greenhouse test, crop damage rating; design: key to crop damage rating SOY: 0-100 scale: 0 = no damage, 100 = complete death of all plants; details: 14 days after application, scale 0-100
In short: as §2

[7] = tested on: sicklepod (Cassia obtusifolia, CASOB); assay: Pre-emerge greenhouse herbicide test, phytotoxicity rating; details: 14 days after application, rating scale 0-100
In short: as §1

[8] = tested on: barnyardgrass (Echinochloa crusgalli, ECHCG); assay: as above; details: 14 days after application, rating scale 0-100
In short: as §1

[9] = tested on: green foxtail (Setaria viridis, SETVI); assay: as above; details: 14 days after application, rating scale 0-100
In short: as §1

[10] = tested on: large crabgrass (Digitaria sanguinalis, DIGSA); assay: as above; details: 14 days after application, rating scale 0-100
In short: as §1

[11] = tested on: velvetleaf (Abutilon theophrasti, ABUTH); assay: as above; details: 14 days after application, rating scale 0-100
In short: as §1

[12] = tested on: ivyleaf morningglory (Ipomoea hederacea, IPOHE); assay: as above; details: 14 days after application, rating scale 0-100
In short: as §1

[13] = tested on: Johnsongrass (Sorghum halepense, SORHA); assay: as above; details: 14 days after application, rating scale 0-100
In short: as §1

[14] = tested on: redroot pigweed (Amaranthus retroflexus, AMARE); assay: as above; details: 14 days after application, rating scale 0-100
In short: as §1

[15] = tested on: common ragweed (Ambrosia artemisiifolia L., AMBEL); assay: as above; details: 14 days after application, rating scale 0-100
In short: as §1

[16] = tested on: lambsquarters (Chenopodium album, CHEAL); assay: as above; details: 14 days after application, rating scale 0-100
In short: as §1

[17] = tested on: sicklepod (Cassia obtusifolia, CASOB); assay: Post-emerge greenhouse herbicide test, phytotoxicity rating; details: 14 days after application, scale 0-100
In short: as §2

[18] = tested on: barnyardgrass (Echinochloa crusgalli, ECHCG); assay: as above; details: 14 days after application, scale 0-100
In short: as §2

[19] = tested on: green foxtail (Setaria viridis, SETVI); assay: as above; details: 14 days after application, scale 0-100
In short: as §2

[20] = tested on: large crabgrass (Digitaria sanguinalis, DIGSA); assay: as above; details: 14 days after application, scale 0-100
In short: as §2

[21] = tested on: velvetleaf (Abutilon theophrasti, ABUTH); assay: as above; details: 14 days after application, scale 0-100
In short: as §2

[22] = tested on: ivyleaf morningglory (Ipomoea hederacea, IPOHE); assay: as above; details: 14 days after application, scale 0-100
In short: as §2

[23] = tested on: Johnsongrass (Sorghum halepense, SORHA); assay: as above; details: 14 days after application, scale 0-100
In short: as §2

[24] = tested on: redroot pigweed (Amaranthus retroflexus, AMARE); assay: as above; details: 14 days after application, scale 0-100
In short: as §2

[25] = tested on: lambsquarters (Chenopodium album, CHEAL); assay: as above; details: 14 days after application, scale 0-100
In short: as §2

[26] = tested on: soybean (Glycine max L., var. Pella 86, SOY); assay: Pre-emerge greenhouse test, crop damage rating; design: key to SOY crop damage rating: 0 = no damage, 100 = complete death of all plants; details: 14 days after application, rating scale 0-100
In short: as §1

SMILES: COc1cc(OC)nc(Oc2cc(-n3c(=O)n4n(c3=S)CCCC4)c(F)cc2Cl)n1 [Compound 8-33]
- CORN crop damage rating ([1]; Rate 500 g al/ha): 0
- RICE crop damage rating ([2]; Rate 500 g al/ha): 10
- crop damage rating CORN ([3]; rate 63 g ai/ha): 5
- crop damage rating CORN ([3]; rate 500 g ai/ha): 15
- crop damage rating RICE ([4]; rate 63 g ai/ha): 0
- crop damage rating RICE ([4]; rate 500 g ai/ha): 10
- phytotoxicity rating AMBEL ([5]; rate 63 g ai/ha): 60
- phytotoxicity rating AMBEL ([5]; rate 500 g ai/ha): 100
- crop damage rating SOY ([6]; rate 63 g ai/ha): 55
- crop damage rating SOY ([6]; rate 500 g ai/ha): 70
- CASOB phytotoxicity rating ([7]; Rate 125 g al/ha): 40
- CASOB phytotoxicity rating ([7]; Rate 500 g al/ha): 90
- ECHCG phytotoxicity rating ([8]; Rate 125 g al/ha): 0
- ECHCG phytotoxicity rating ([8]; Rate 500 g al/ha): 20
- SETVI phytotoxicity rating ([9]; Rate 125 g al/ha): 80
- SETVI phytotoxicity rating ([9]; Rate 500 g al/ha): 100
- DIGSA phytotoxicity rating ([10]; Rate 125 g al/ha): 10
- DIGSA phytotoxicity rating ([10]; Rate 500 g al/ha): 90
- ABUTH phytotoxicity rating ([11]; Rate 125 g al/ha): 100
- ABUTH phytotoxicity rating ([11]; Rate 500 g al/ha): 100
- IPOHE phytotoxicity rating ([12]; Rate 125 g al/ha): 0
- IPOHE phytotoxicity rating ([12]; Rate 500 g al/ha): 70
- SORHA phytotoxicity rating ([13]; Rate 125 g al/ha): 0
- SORHA phytotoxicity rating ([13]; Rate 500 g al/ha): 40
- AMARE phytotoxicity rating ([14]; Rate 125 g al/ha): 100
- AMARE phytotoxicity rating ([14]; Rate 500 g al/ha): 100
- AMBEL phytotoxicity rating ([15]; Rate 125 g al/ha): 0
- AMBEL phytotoxicity rating ([15]; Rate 500 g al/ha): 40
- CHEAL phytotoxicity rating ([16]; Rate 125 g al/ha): 100
- CHEAL phytotoxicity rating ([16]; Rate 500 g al/ha): 100
- phytotoxicity rating CASOB ([17]; rate 63 g ai/ha): 55
- phytotoxicity rating CASOB ([17]; rate 500 g ai/ha): 95
- phytotoxicity rating ECHCG ([18]; rate 63 g ai/ha): 20
- phytotoxicity rating ECHCG ([18]; rate 500 g ai/ha): 40
- phytotoxicity rating SETVI ([19]; rate 63 g ai/ha): 20
- phytotoxicity rating SETVI ([19]; rate 500 g ai/ha): 80
- phytotoxicity rating DIGSA ([20]; rate 63 g ai/ha): 0
- phytotoxicity rating DIGSA ([20]; rate 500 g ai/ha): 50
- phytotoxicity rating ABUTH ([21]; rate 63 g ai/ha): 100
- phytotoxicity rating ABUTH ([21]; rate 500 g ai/ha): 100
- phytotoxicity rating IPOHE ([22]; rate 63 g ai/ha): 90
- phytotoxicity rating IPOHE ([22]; rate 500 g ai/ha): 100
- phytotoxicity rating SORHA ([23]; rate 63 g ai/ha): 10
- phytotoxicity rating SORHA ([23]; rate 500 g ai/ha): 30
- phytotoxicity rating AMARE ([24]; rate 63 g ai/ha): 95
- phytotoxicity rating AMARE ([24]; rate 500 g ai/ha): 100
- phytotoxicity rating CHEAL ([25]; rate 63 g ai/ha): 90
- phytotoxicity rating CHEAL ([25]; rate 500 g ai/ha): 100
- SOY crop damage rating ([26]; Rate 125 g al/ha): 0
- SOY crop damage rating ([26]; Rate 500 g al/ha): 30

SMILES: O=c1n(-c2cc(Oc3nccc(Cl)n3)c(Cl)cc2F)c(=S)n2n1CCCC2 [Compound 8-31]
- CORN crop damage rating ([1]; Rate 125 g al/ha): 0
- CORN crop damage rating ([1]; Rate 500 g al/ha): 0
- RICE crop damage rating ([2]; Rate 125 g al/ha): 0
- RICE crop damage rating ([2]; Rate 500 g al/ha): 10
- crop damage rating CORN ([3]; rate 63 g ai/ha): 5
- crop damage rating CORN ([3]; rate 500 g ai/ha): 10
- crop damage rating RICE ([4]; rate 63 g ai/ha): 0
- crop damage rating RICE ([4]; rate 500 g ai/ha): 5
- phytotoxicity rating AMBEL ([5]; rate 63 g ai/ha): 50
- phytotoxicity rating AMBEL ([5]; rate 500 g ai/ha): 95
- crop damage rating SOY ([6]; rate 63 g ai/ha): 70
- crop damage rating SOY ([6]; rate 500 g ai/ha): 70
- CASOB phytotoxicity rating ([7]; Rate 125 g al/ha): 30
- CASOB phytotoxicity rating ([7]; Rate 500 g al/ha): 90
- ECHCG phytotoxicity rating ([8]; Rate 125 g al/ha): 0
- ECHCG phytotoxicity rating ([8]; Rate 500 g al/ha): 20
- SETVI phytotoxicity rating ([9]; Rate 125 g al/ha): 0
- SETVI phytotoxicity rating ([9]; Rate 500 g al/ha): 90
- DIGSA phytotoxicity rating ([10]; Rate 125 g al/ha): 0
- DIGSA phytotoxicity rating ([10]; Rate 500 g al/ha): 70
- ABUTH phytotoxicity rating ([11]; Rate 125 g al/ha): 100
- ABUTH phytotoxicity rating ([11]; Rate 500 g al/ha): 100
- IPOHE phytotoxicity rating ([12]; Rate 125 g al/ha): 0
- IPOHE phytotoxicity rating ([12]; Rate 500 g al/ha): 70
- SORHA phytotoxicity rating ([13]; Rate 125 g al/ha): 0
- SORHA phytotoxicity rating ([13]; Rate 500 g al/ha): 20
- AMARE phytotoxicity rating ([14]; Rate 125 g al/ha): 100
- AMARE phytotoxicity rating ([14]; Rate 500 g al/ha): 100
- AMBEL phytotoxicity rating ([15]; Rate 125 g al/ha): 30
- AMBEL phytotoxicity rating ([15]; Rate 500 g al/ha): 0
- CHEAL phytotoxicity rating ([16]; Rate 125 g al/ha): 90
- CHEAL phytotoxicity rating ([16]; Rate 500 g al/ha): 100
- phytotoxicity rating CASOB ([17]; rate 63 g ai/ha): 0
- phytotoxicity rating CASOB ([17]; rate 500 g ai/ha): 80
- phytotoxicity rating ECHCG ([18]; rate 63 g ai/ha): 0
- phytotoxicity rating ECHCG ([18]; rate 500 g ai/ha): 20
- phytotoxicity rating SETVI ([19]; rate 63 g ai/ha): 10
- phytotoxicity rating SETVI ([19]; rate 500 g ai/ha): 40
- phytotoxicity rating DIGSA ([20]; rate 63 g ai/ha): 0
- phytotoxicity rating DIGSA ([20]; rate 500 g ai/ha): 50
- phytotoxicity rating ABUTH ([21]; rate 63 g ai/ha): 70
- phytotoxicity rating ABUTH ([21]; rate 500 g ai/ha): 100
- phytotoxicity rating IPOHE ([22]; rate 63 g ai/ha): 80
- phytotoxicity rating IPOHE ([22]; rate 500 g ai/ha): 80
- phytotoxicity rating SORHA ([23]; rate 63 g ai/ha): 0
- phytotoxicity rating SORHA ([23]; rate 500 g ai/ha): 30
- phytotoxicity rating AMARE ([24]; rate 63 g ai/ha): 70
- phytotoxicity rating AMARE ([24]; rate 500 g ai/ha): 100
- phytotoxicity rating CHEAL ([25]; rate 63 g ai/ha): 90
- phytotoxicity rating CHEAL ([25]; rate 500 g ai/ha): 95
- SOY crop damage rating ([26]; Rate 125 g al/ha): 40
- SOY crop damage rating ([26]; Rate 500 g al/ha): 0
